ChEMBL document CHEMBL1127504, “Synthesis and evaluation of 4-(2'-methoxyphenyl)-1-[2'-[N-(2"-pyridinyl)-p- iodobenzamido]ethyl]piperazine (p-MPPI): a new iodinated 5-HT1A ligand” (J Med Chem, 1994)

What was measured:
[1] = target: T1, 5-hydroxytryptamine receptor 1A (Rattus norvegicus, UniProt P19327); assay type: tissue-based, Hippocampus
T1 sequence (P19327 whole entry): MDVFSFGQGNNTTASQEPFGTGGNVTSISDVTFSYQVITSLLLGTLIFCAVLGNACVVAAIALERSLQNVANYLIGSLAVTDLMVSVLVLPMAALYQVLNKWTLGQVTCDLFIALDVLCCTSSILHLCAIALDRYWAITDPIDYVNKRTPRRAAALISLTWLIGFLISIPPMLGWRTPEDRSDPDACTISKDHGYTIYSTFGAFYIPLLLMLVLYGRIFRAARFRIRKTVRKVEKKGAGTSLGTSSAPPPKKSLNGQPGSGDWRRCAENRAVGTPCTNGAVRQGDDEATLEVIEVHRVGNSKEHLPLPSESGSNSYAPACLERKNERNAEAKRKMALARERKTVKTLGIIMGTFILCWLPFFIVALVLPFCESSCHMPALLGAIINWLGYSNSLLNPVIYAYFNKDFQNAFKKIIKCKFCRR

[2] = target: T2, 5-hydroxytryptamine receptor 1A (Rattus norvegicus) (UniProt P19327); assay type: tissue-based; conditions: Hippocampus
T2 sequence (whole entry): T1 sequence (P19327 whole entry)

[3] = target: T1, 5-hydroxytryptamine receptor 1A; assay: biochemical
Description: Inhibition of binding of [125I]8-OH-PIPAT ligand to 5-hydroxytryptamine 1A receptor of rat hippocampal homogenates

[4] = target: T1, 5-hydroxytryptamine receptor 1A; assay type: tissue-based, Hippocampus; remark: listed apart in the source

## COc1ccccc1N1CCN(CCCCNC(=O)C23C[C@H]4C[C@@H](C2)C[C@@H](C3)C4)CC1
[1]
  Kd: 0.4 nM

## CCCN(C/C=C/I)C1CCc2cccc(O)c2C1 (centres undefined)
[2]
  Bmax (fM (mg of protein)-1): 310
[3]
  Ki: 0.38 nM

## COc1ccccc1N1CCN(CCN(C(=O)c2ccc(I)cc2)c2ccccn2)CC1
[4]
  Kd: 0.3 nM
